From patent US10233157B2, “SIK inhibitor for use in a method of treating an inflammatory and/or immune disorder” (Dana-Farber Cancer Institute, Inc., priority 2012, dated 2019) come the findings set out here.

In one assay the test system is LKB1−/− macrophages. Description: Cytokine secretion in LKB1−/− macrophages. It counts as cell-based, mouse. The source says:
FIGS. 9A to 9I. Genetic evidence using LKB1-deficient macrophages and a drug-resistant mutant of SIK2 to establish that inhibition of SIKs induces IL-10 production. (FIG. 9A) Loss of CRTC3 phosphorylation in LKB1−/− MEFs. (FIG. 9B) Enhanced IL-10 production and reduced secretion of pro-inflammatory cytokines in LysM-Cre-LKB1flox/flox macrophages (n=3, mean±SD). (FIG. 9C) Sequence alignment of AMPK-related kinases. The ‘gatekeeper’ site is indicated using an asterisk. (FIG. 9D) […] curves of KIN112 against different SIK2 mutants. […]. (FIG. 9F) Induction of HA-SIK2 (WT and [T96Q]) expression in RAW264.7 macrophages. […]. RAW264.7 cells were induced to express HA-SIK2-WT or HA-SIK2[T96]. As a further control, cells transduced with the empty vector and which only express endogenous SIK isoforms were also used. […]. […]. IL-10^−/− mice on a C57BL/6 background were purchased from The Jackson Laboratory, Maine, USA. LKB1^flox/flox mice on a C57BL/6 background were a generous gift from Alan Ashworth and were crossed with LysM-Cre mice to delete LKB1 in macrophages. Mice were bred at the University of Dundee under specific pathogen-free conditions in accordance with European Union regulations. Water supply for IL-10^−/− mice was supplemented with antibiotics to prevent the development of colitis. Work was approved by local ethical review and was performed with a UK Home Office project license. […]

The test system of assay [1] is protein kinases that possess a threonine residue at the gatekeeper site (Src, Lck, Yes, BTK, FGF and Ephrin receptors). Description: Kinase profiling, kinases with threonine at the gatekeeper site. It counts as biochemical. As to conditions: kinase panel; 1 μM KIN112, 0.1 μM HG-9-91-01. The protocol:
Recombinant SIK1, SIK2, SIK3 were expressed as GST-fusion proteins in HEK293 cells and purified on a glutathione-Sepharose column. […] FLAG-CRTC3 was immunoprecipitated using anti-FLAG M2 agarose, washed in kinase buffer (50 mM Tris/HCl pH 7.4, 10 mM Mg acetate, 0.1 mM EGTA, 2 mM DTT) and reactions initiated by adding 4 U/ml recombinant kinase with 0.1 mM ATP (specific activity 3000 cpm/pmol). Phosphorylation of CRTC3 was monitored by autoradiography as well as immunoblotting using phosphospecific antibodies raised against Ser162, Ser329 and Ser370. […] Kinase profiling was performed as previously described (7) and performed by the International Centre for Kinase Profiling (www.kinase-screen.mrc.ac.uk).

Assay [2] has as its system Brain-Specific Kinases (BRSKs). Nature of the assay: Kinase assays, BRSKs. It counts as biochemical. As to conditions: in vitro.
For a further assay, the system named is STAT3. Description: Immunoblotting of STAT3 phosphorylation in LPS-stimulated macrophages. It counts as cell-based, mouse. The protocol: FIGS. 2A to 2G. […] As in A except that cells were stimulated for 2 h with LPS.
Bone-marrow derived macrophages were differentiated for 7 days in DMEM supplemented with 5 ng/ml recombinant M-CSF (R&D systems), 2 mM glutamine, 10% foetal calf serum, penicillin and streptomycin.
Cells were rinsed in ice-cold PBS and extracted in lysis buffer (50 mM Tris/HCl pH 7.4, 1 mM EDTA, 1 mM EGTA, 50 mM NaF, 5 mM sodium pyrophosphate, 10 mM sodium α-glycerol 1-phosphate, 1 mM dithiothreitol, 1 mM sodium orthovanadate, 0.27 M sucrose, 1% (v/v) Triton X-100, 1 μg/ml aprotinin, 1 μg/ml leupeptin and 1 mM phenylmethylsulphonyl fluoride). Cell extracts were clarified by centrifugation at 14000×g for 10 min at 4° C. and protein concentrations determined using the Bradford assay. To detect proteins in cell lysates, 20 μg of protein extract was separated by SDS-PAGE. After transfer to PVDF membranes, proteins were detected by immunoblotting and visualized by treating the blots with ECL (Amersham) followed by autoradiography. The antibody recognizing CREB phosphorylated at Ser133 was from Cell Signalling Technology and the one detecting α-tubulin was obtained from Sigma.

The subject of another assay is TBK1/IKKε−/− fibroblasts. Nature of the assay: nurr77 mRNA in IL-1 stimulated TBK1/IKKε−/− embryonic fibroblasts. It counts as cell-based, mouse. As to conditions: fibroblasts not expressing the IKK-related kinases. The protocol:
Bone marrow-derived macrophages were differentiated for 7 days in DMEM supplemented with 5 ng/ml recombinant M-CSF (R&D systems), 2 mM glutamine, 10% foetal calf serum (FCS), penicillin and streptomycin. RAW264.7 cells and immortalized mouse embryonic fibroblasts (MEFs) from TBK1/IKKε^+/−, TBK1/IKKε^−/−, LKB1^+/+ and LKB1^−/− mice were cultured in DMEM containing 10% FCS, 2 mM glutamine and penicillin and streptomycin, while THP-1 monocytes were grown in RPMI-1640 supplemented with 10% FCS and antibiotics. For the culture of primary human macrophages, PBMCs were isolated from human blood using Ficoll and the monocytes were purified using anti-CD14 magnetic beads (Miltenyi Biotec). Monocytes were differentiated into macrophages for 6 days in the presence of 100 ng/ml M-CSF.

Another assay relates to NUAK isoforms. Description: Kinase assays, NUAK isoforms. It counts as biochemical. As to conditions: in vitro.

For `COc1ccc(N(C(=O)Nc2c(C)cccc2C)c2cc(Nc3ccc(N4CCN(C)CC4)cc3)ncn2)c(OC)c1` [HG-9-91-01, 1-(2,4-dimethoxyphenyl)-3-(2,6-dimethylphenyl)-1-(6-((4-(4-methylpiperazin-1-yl)phenyl)amino)pyrimidin-4-yl)urea], the “IL-10, IL-12 and TNFα secretion in response to LPS” value in the assay on LKB1−/− macrophages is reported as “unaffected”. Moreover, the “inhibition of protein kinases with a threonine residue at the gatekeeper site” value in assay [1] was “inhibited”.

Turning to `O=C(NCCCNc1nc(Nc2cccc(CN3CCOCC3)c2)ncc1C1CC1)C1CCC1` [MRT67307], the “inhibition of BRSKs” value in assay [2] is listed as “did not inhibit”. For the same compound, the “LPS-stimulated phosphorylation of STAT3” value in the assay on STAT3 (2 μM MRT67307) is “increased”. Besides, the “phosphorylation of STAT3” value in the assay on STAT3 (LPS-stimulated macrophages from IL-10−/− mice, presence or absence of compound) is “no phosphorylation of STAT3 occurred”. For the same compound, in the assay on TBK1/IKKε−/− fibroblasts, the “transcription of CREB-dependent nurr77 gene” value was “could still enhance”. Further, the “inhibition of NUAK isoforms” value in the assay on NUAK isoforms is “comparable potency to the IKK-related kinases”.
